Results published in patent US8609100B2, “Method for inhibiting dendritic cell immunoreceptor (DCIR)-mediated human immunodeficiency virus infection comprising administering anti-DCIR antibodies” (Universite Laval, priority 2008, dated 2013).

Tests used:
HIV-1 (NL4-3balenv) [1] = test: HIV-1 transfer assay: virus-pulsed IM-MDDC co-cultured with autologous CD4+ T cells, p24 ELISA; assay type: cell-based, human immunodeficiency virus type 1
Experimental: HIV-1 transfer assay: IM-MDDC (10^5 cells in 100 μl) transfected either with the above listed siRNAs or pre-incubated with polyclonal anti-DCIR (10 μg/1.5×10^5 cells) were exposed to HIV-1 (10 ng of p24) for 60 min at 37° C. Next, the virus-cell mixture was washed three times with PBS to remove unadsorbed virions. In some experiments, cells were also treated with the anti-HIV-1 drug EFV (efavirenz) (50 μM). Finally, IM-MDDC were co-cultured with autologous activated CD4^+ T lymphocytes at a 1:3 ratio in complete RPMI-1640 medium supplemented with IL-2 (30 U/ml) in 96-well plates in a final volume of 200 μl. At day 2, virus production was estimated by measuring p24 levels in cell-free culture supernatants by ELISA.
(§1) We next evaluated the transfer of HIV to autologous CD4^+ T cells. To that effect, IM-MDDC (1×10^6 cells) were treated with Oligofectamine and then either left untreated (control) or exposed to a non-specific siRNA and a DCIR-specific siRNA. Next, cells (1×10^5) were pulsed with NL4-3balenv (10 ng of p24) for 60 min at 37° C. After three washes with PBS to eliminate unbound virus, IM-MDDC were co-cultured with autologous CD4^+ T cells at a 1:3 ratio. Cell-free culture supernatants were collected at day 2 following initiation of the co-culture and analyzed for the p24 content. Data shown in FIG. 3 represent the means±SD of triplicate samples from three combined independent experiments. Asterisks denote statistically significant data (***, P<0.001).
as §1, with “In FIG. 4A,” for “We next evaluated the transfer of HIV to autologous CD4^+ T cells. To that effect,”, “were either left untreated or treated with EFV. IM-MDDC (2×10^5 cells)” for “(1×10^5)”, “(20” for “(10”, “shown” for “shown in FIG. 3”, “two different donors and are representative of four separate donors.” for “three combined independent experiments.”, “(*, P<0.05, **, P<0.01).” for “(***, P<0.001).”
(§2) In FIG. 5 left panels, IM-MDDC (2×10^5 cells) were initially treated with either a control Ab or a polyclonal anti-DCIR (10 μg per 1.5×10^5 cells). Next, cells were extensively washed to eliminate excess Ab and pulsed with NL4-3balenv (20 ng of p24) for 2 hrs at 37° C. […] Cell-free culture supernatants were collected at the indicated time points and analyzed for the p24 content. […] Cell-free culture supernatants were collected at day 2 following initiation of the co-culture and analyzed for the p24 content. […]

DCIR = DCIR surface expression in siRNA-transfected IM-MDDC by flow cytometry; assay type: cell-based, human; conditions: 40 hrs after siRNA transfection, FIG. 2
Experimental: Flow cytometric analysis: Cell surface expression of DCIR was monitored by flow cytometric analysis with a flow cytometry apparatus (Epics ELITE ESP, Coulter Electronics, Burlington, ON). Before staining, cells were incubated for 15 min at 4° C. with 10% pooled human sera to block non-specific binding sites and washed once with phosphate buffered saline (PBS) supplemented with 0.5% bovine serum albumin (BSA). Next, cells were incubated for 45 min at 4° C. with anti-DCIR (0.25 μg) monoclonal Ab and then washed twice with PBS and 0.5% BSA. Non-specific staining was determined by using an isotype-matched irrelevant control Ab. After two final washes with PBS, cells were fixed in 2% paraformaldehyde and analyzed.
Gene silencing of DCIR with siRNAs: Small interfering RNAs (siRNAs) either specific (i.e. 5′-ATTTAGGTGGTCTGTCA-3′; [SEQ ID NO:11]) or non-specific for DCIR (i.e. 5′-[…]-3′; [SEQ ID NO:45]) were obtained from Qiagen and dissolved in an appropriate buffer. The studied siRNAs were subsequently tested in IM-MDDC as previously described 2. Control cells were treated with either Oligofectamine alone or Oligofectamine and non-specific siRNAs. […] The efficiency of DCIR silencing with the tested siRNA was monitored by flow cytometry.
We thus employed RNA interference to reduce DCIR expression in IM-MDDC and analyzed the possible effect on HIV-1 transfer. […]

IM-MDDC = assay type: cell-based, human
Description: (§3) A ˜30% decrease in surface expression of DCIR in IM-MDDC was observed following the use of DCIR-specific siRNA (FIG. 2).

HIV-1 (NL4-3balenv) [2] = test: HIV-1 infection of IM-MDDC: virus production by p24 ELISA; assay type: cell-based, human immunodeficiency virus type 1; conditions: siRNA-transfected IM-MDDC pulsed with NL4-3balenv 20 ng p24 for 2 hrs; FIG. 4C
Experimental: HIV-1 infection of IM-MDDC: IM-MDDC (2×10^5 cells in a final volume of 100 μl) either transfected with the studied siRNAs or pre-incubated with the above mentioned polyclonal anti-DCIR were exposed to HIV-1 (20 ng of p24) for 2 hr at 37° C. After three washes with PBS, cells were maintained in complete RPMI-1640 culture medium supplemented with GM-CSF (1,000 U/ml) and IL-4 (200 U/ml) in 96-well plates in a final volume of 200 μl. Every 3 days and for a period lasting 9 days, half of the medium was removed and kept frozen at −20° C. until assayed. Virus production was estimated by measuring p24 levels in culture supernatants by ELISA. […]
In FIG. 4C, IM-MDDC were treated with Oligofectamine and then either left untreated (control) or exposed to a non-specific siRNA and a DCIR-specific siRNA. […] Cell-free culture supernatants were collected at the indicated time points and analyzed for the p24 content. […]
as §2, with “cells).” for “cells). Next, cells were extensively washed to eliminate excess Ab and pulsed with NL4-3balenv (20 ng of p24) for 2 hrs at 37° C.”

DC-SIGN = DC-SIGN expression in IM-MDDC after DCIR-specific siRNA; assay type: cell-based, human; conditions: IM-MDDC transfected with siRNA; data not shown
Description: as §3

Molecule	effect on HIV-1 propagation (virus transfer) (HIV-1 (NL4-3balenv) [1]; EFV 50 μM added to IM-MDDC, FIG. 4A)	decrease in surface expression of DCIR in IM-MDDC (DCIR)	cells viability (IM-MDDC)	de novo virus production in IM-MDDC (p24) (HIV-1 (NL4-3balenv) [2])	DC-SIGN expression (DC-SIGN)	reduction in virus transfer (average diminution) (HIV-1 (NL4-3balenv) [1]; cells treated with EFV (50 μM), NL4-3balenv 20 ng p24, co-culture day 2, FIG. 4A)	reduction in virus transfer (average decrease) (HIV-1 (NL4-3balenv) [1]; in absence of EFV, NL4-3balenv 20 ng p24, co-culture day 2, FIG. 4A)	transfer of HIV-1 from IM-MDDC to autologous CD4+ T cells (p24 content) (HIV-1 (NL4-3balenv) [1]; siRNA-transfected IM-MDDC pulsed with NL4-3balenv 10 ng p24 for 60 min, co-culture 1:3, day 2, FIG. 3)
O=C1Nc2ccc(Cl)cc2[C@@](C#CC2CC2)(C(F)(F)F)O1 [EFV, efavirenz, reference compound]	limited effect	–	–	–	–	–	–	–
DCIR-specific siRNA: siRNA specific for DCIR, 5′-ATTTAGGTGGTCTGTCA-3′ [SEQ ID NO:11], obtained from Qiagen (chemistry not given here)	–	~30%	minimally affected	decrease	not affected	40%	30%	reduced significantly
